The molecules below were run on TNF-α (assay: In vitro measurement of TNF-α production in LPS-stimulated human PBMC (ELISA)). Settings: 100 nM compound, LPS 1 μg/mL, 18 h, NA: Not active.
Type: cell-based
Description: Biological Activity In Vitro Measurement of Tumor Necrosis Factor Alpha (TNF-α):
This assay determines the effect of test compounds on the production of TNF-α in human Peripheral Blood Mononuclear Cells (PBMC). Compounds were tested for their ability to inhibit the activity of TNF α in human PBMC. PBMC were isolated from blood (of healthy volunteers) using BD Vacutainer CPT™ (Cell preparation tube, BD Bio Science) and suspended in RPMI (Rosewell park memorial institute) medium (Physiol. Res. 2003, 52, 593-598). The test compounds were pre-incubated with PBMC (0.5 million/incubation well) for 15 minutes at 37° C. and then stimulated with Lipopolysaccharide (Escherichia coli: B4; 1 μg/mL) for 18 h at 37° C. in 5% CO2. The levels of TNF-α in the cell culture medium were estimated using enzyme-linked immunosorbent assay performed in a 96 well format as per the procedure of the manufacturer (Cayman Chemical, Ann Arbor, USA).

| Compound | inhibition at 0.1 µM [%] |
| --- | --- |
| CS(=O)(=O)Nc1ccc2oc3c(OC(F)F)ccc(-c4nc(C(=O)NC5CCC(O)CC5)cs4)c3c2c1 (stereo not drawn) [Example 46, 2-(4-(Difluoromethoxy)-(methylsulfonamido)dibenzo[b,d]furan-1-yl)-N-(4-hydroxycyclohexyl)-1,3-thiazole-4-carboxamide] | 78.6 |
| COc1ccc(-c2nc(C(=O)NN3CCOCC3)cs2)c2c1oc1ccccc12 [Example 30, 2-(4-Methoxydibenzo[b,d]furan-1-yl)-N-morpholino-1,3-thiazole-4-carboxamide] | 21.9 |
| COc1ccc(-c2nc(C(N)=O)cs2)c2c1oc1ccccc12 [Example 25, 2-(4-Methoxydibenzo[b,d]furan-1-yl)-1,3-thiazole-4-carboxamide] | 35.5 |
| COc1ccc(-c2nc(C(=O)NC3CCCC3)c(C)s2)c2c1oc1ccccc12 [Example 26, N-Cyclopentyl-2-(4-methoxydibenzo[b,d]furan-1-yl)-5-methyl-1,3-thiazole-4-carboxamide] | 21.9 |
| CCNC(=O)c1nc(-c2ccc(OC)c3oc4ccccc4c23)sc1C [Example 29, N-Ethyl-2-(4-methoxydibenzo[b,d]furan-1-yl]-5-methyl-1,3-thiazole-4-carboxamide] | 18.4 |
| O=C(NC1CCC(O)CC1)c1csc(-c2ccc(OC(F)F)c3oc4ccc(C(F)(F)F)cc4c23)n1 (stereo not drawn) [Example 44, 2-(4-(Difluoromethoxy)-8-(trifluoromethyl)dibenzo[b,d]furan-1-yl)-N-(4-hydroxycyclohexyl)-1,3-thiazole-4-carboxamide] | 17.2 |
| COc1ccc(-c2nc(C(=O)Nc3c(Cl)cncc3Cl)c(C)s2)c2c1oc1ccccc12 [Example 28, N-(3,5-Dichloropyridin-4-yl)-2-(4-methoxydibenzo[b,d]furan-1-yl)-5-methyl-1,3-thiazole-4-carboxamide] | 0.88 |
| COc1ccc(-c2nc(C(=O)NC3CCC(O)CC3)c(C)s2)c2c1oc1ccccc12 (stereo not drawn) [Example 27, N-(4-Hydroxycyclohexyl)-2-(4-methoxydibenzo[b,d]furan-1-yl)-5-methyl-1,3-thiazole-4-carboxamide] | 82.7 |
| COc1ccc(-c2nc(C(=O)NC3CCC(O)CC3)cs2)c2c1oc1ccccc12 (stereo not drawn) [Example 31, N-(4-Hydroxycyclohexyl)-2-(4-methoxydibenzo[b,d]furan-1-yl)-1,3-thiazole-4-carboxamide] | 63.1 |
| COc1ccc(-c2nc(-c3cccc(C(=O)O)n3)cs2)c2c1oc1ccccc12 [Example 2, 6-(2-(4-Methoxydibenzo[b,d]furan-1-yl)-1,3-thiazol-4-yl)picolinic acid] | 26.1 |
| CONC(=O)c1nc(-c2ccc(OC(F)F)c3oc4ccc(NS(C)(=O)=O)cc4c23)sc1C [Example 37, 2-(4-(Difluoromethoxy)-8-(methylsulfonamido)dibenzo[b,d]furan-1-yl)-N-methoxy-5-methyl-1,3-thiazole-4-carboxamide] | 35.4 |
| CC(=O)Nc1ccc2oc3c(OC(F)F)ccc(-c4nc(C(=O)O)cs4)c3c2c1 [Example 36, 2-[8-(Acetylamino)-4-(difluoromethoxy)dibenzo[b,d]furan-1-yl]-1,3-thiazole-4-carboxylic acid] | 15.5 |
| O=C(NCC(F)(F)F)c1csc(-c2ccc(OC(F)F)c3oc4ccccc4c23)n1 [Example 40, 2-((4-Difluoromethoxy)dibenzo[b,d]furan-1-yl)-N-(2,2,2-trifluoroethyl)-1,3-thiazole-4-carboxamide] | 26.7 |
| CS(=O)(=O)Nc1ccc2oc3c(OC(F)F)ccc(-c4nc(C(=O)Nc5c(Cl)cncc5Cl)cs4)c3c2c1 [Example 34] | 25.1 |
| CONC(=O)c1csc(-c2ccc(OC(F)F)c3oc4ccccc4c23)n1 [Example 42, 2-((4-Difluoromethoxy)dibenzo[b,d]furan-1-yl)-N-methoxy-1,3-thiazole-4-carboxamide] | 8.5 |

Each molecule was assayed against human PDE4B enzyme (PDE4B2) (Homo sapiens, UniProt Q07343) (assay: Phosphodiesterase 4 screening assay (SPA, [3H]-cAMP)). Settings: 100 nM compound; 0.5 μM cAMP.
human PDE4B enzyme (PDE4B2), sequence (Q07343 1-564 isoform Q07343-2): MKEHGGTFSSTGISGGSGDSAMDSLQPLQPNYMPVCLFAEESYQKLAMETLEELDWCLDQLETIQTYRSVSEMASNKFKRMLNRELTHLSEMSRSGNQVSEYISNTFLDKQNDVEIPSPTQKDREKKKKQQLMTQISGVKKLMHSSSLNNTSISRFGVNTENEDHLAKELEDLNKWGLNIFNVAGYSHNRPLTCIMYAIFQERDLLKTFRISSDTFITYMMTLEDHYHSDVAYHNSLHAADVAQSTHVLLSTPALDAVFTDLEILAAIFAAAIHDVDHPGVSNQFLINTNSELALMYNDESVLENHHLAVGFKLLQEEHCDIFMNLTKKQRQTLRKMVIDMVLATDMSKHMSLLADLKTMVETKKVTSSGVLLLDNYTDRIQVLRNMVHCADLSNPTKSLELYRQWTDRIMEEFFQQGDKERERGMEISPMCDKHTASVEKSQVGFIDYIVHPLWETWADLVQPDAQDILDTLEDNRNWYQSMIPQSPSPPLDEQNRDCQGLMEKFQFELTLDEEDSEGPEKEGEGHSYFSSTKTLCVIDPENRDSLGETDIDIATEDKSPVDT
Type: biochemical
Description: Phosphodiesterase 4 Screening Assay:
PDE4 (Phosphodiesterase type IV) enzymes convert cyclic AMP (cAMP) into AMP. The assay is performed to determine the effect of test compounds on the inhibition of purified human PDE4B enzyme.
The assay involves the detection of the Tritiated AMP (product) using SPA beads known as yittrium silicate. The linear AMP bind preferentially to SPA yittrium silicate beads compared to cyclic nucleotides in the presence of zinc sulphate. The binding of the radiolabelled product to the bead brings the isotope into close proximity to allow radiation from the tritium to excite the scintillant within the bead to emit light. The unbound radiolabel is not close enough to allow this energy transfer and the light emitted due to the binding of tritiated AMP is detected as cpm (counts per minute).
PDE Activity (SPA Based Assay Protocol):
PDE4B activity was inhibited by the compounds according to the invention in a modified SPA (scintillation proximity assay) test, supplied by GE Healthcare Life Sciences (see procedural instructions “Phosphodiesterase [^3H]-cAMP SPA enzyme assay, code TRKQ 7090”), carried out in 96-well microtitre plates. The test volume is 100 μL and contains 50 mM Tris buffer (pH 7.4), 8.3 mM Mg^2+, in the presence of inhibitor or test compound, and containing PDE4B2 enzyme (sufficient to ensure that 10-20% of the cAMP is converted, under the said experimental conditions). […] After a pre-incubation of 5 minutes at 37° C., the reaction is started by adding the substrate (cAMP; 0.5 μM cAMP, including about 50,000 cpm of [^3H]-cAMP) and the assays are incubated for a further 10 minutes; after that, they are stopped by adding SPA beads containing 18 mM ZnSO4 (50 μl). After the beads have been sedimented (>30 minutes), the microtitre plates are analyzed in a Microplate luminescence detection device (TopCount* NXT; PerkinElmer Life Sciences). Where, the signal in the absence of enzyme is defined as the background. 100% activity was defined as the signal detected in the presence of enzyme and DMSO with the background subtracted. The corresponding IC50 values of the compounds for the inhibition of PDE4B2 activity are determined from the concentration-effect curves by means of non-linear regression fit of the standard 4-parameter/multiple binding sites equation from a eight- to ten-point titration. (Catherine B. et al. Anal. Biochem., 1999, 275(2), pp. 148-155, David M. E. Biochem. Pharmacol., 1999, 57, pp. 965-973)

| Compound | inhibition at 0.1 µM [%] |
| --- | --- |
| COc1ccc(-c2nc(C(N)=O)cs2)c2c1oc1ccccc12 [Example 25, 2-(4-Methoxydibenzo[b,d]furan-1-yl)-1,3-thiazole-4-carboxamide] | 15.4 |
| COc1ccc(-c2nc(C(=O)NC(C)C)c(C)o2)c2c1oc1ccccc12 [Example 61, 2-(4-Methoxydibenzo[b,d]furan-1-yl)-5-methyl-N-(propan-2-yl)-1,3-oxazole-4-carboxamide] | 44.3 |
| COc1ccc(-c2csc(-c3ccc(OC)c4oc5ccccc5c34)n2)cc1 [Example 22, 2-(4-Methoxydibenzo[b,d]furan-1-yl)-4-(4-methoxyphenyl)-1,3-thiazole] | 19.4 |
| COc1ccc(-c2nc(C)c(C(=O)O)s2)c2c1oc1ccccc12 [Example 23, 2-(4-Methoxydibenzo[b,d]furan-1-yl)-4-methyl-1,3-thiazole-5-carboxylic acid] | 16.8 |
| COc1ccc(-c2nc(C(=O)N3CCN(c4ncc(C(=O)O)cn4)CC3)co2)c2c1oc1ccccc12 [Example 66, 2-(4-(2-(4-Methoxydibenzo[b,d]furan-1-yl)oxazole-4-carbonyl)piperazin-1-yl)pyrimidine-5-carboxylic acid] | 18.9 |
| COc1ccc(-c2nc(C(=O)N3CCCC3)co2)c2c1oc1ccccc12 [Example 71, [2-(4-Methoxydibenzo[b,d]furan-1-yl)-1,3-oxazol-4-yl](pyrrolidin-1-yl)methanone] | 20.3 |
| COc1ccc(-c2nc(C(N)=O)co2)c2c1oc1ccccc12 [Example 67, 2-(4-Methoxydibenzo[b,d]furan-1-yl)-1,3-oxazole-4-carboxamide] | 22.8 |
| COc1ccc(-c2nc3cc(C(=O)NC4CCC(O)CC4)ccc3o2)c2c1oc1ccccc12 (stereo not drawn) [Example 77, N-(4-Hydroxycyclohexyl)-2-(4-methoxydibenzo[b,d]furan-1-yl)-1,3-benzo[d]oxazole-5-carboxamide] | 55.3 |
| COc1ccc(-c2nc(CC(=O)Nc3c(Cl)cncc3Cl)cs2)c2c1oc1ccccc12 [Example 12, N-(3,5-Dichloropyridin-4-yl)-2-(2-(4-methoxydibenzo[b,d]furan-1-yl)-1,3-thiazol-4-yl)acetamide] | 8.92 |
| COc1ccc(-c2nc(C(=O)O)cs2)c2c1oc1ccccc12 [Example 16, 2-(4-Methoxydibenzo[b,d]furan-1-yl)-1,3-thiazole-4-carboxylic acid] | 36 |
| COc1ccc(-c2nc(C(=O)N3CCN(c4ccccn4)CC3)cs2)c2c1oc1ccccc12 [Example 19, (2-(4-Methoxydibenzo[b,d]furan-1-yl)-1,3-thiazol-4-yl)(4-(pyridin-2-yl)piperazin-1-yl)methanone] | 21.9 |

The molecules below were run on TNF-α (assay: LPS induced sepsis for measurement of TNF-α inhibition in mice). Settings: 10 mg/kg oral, 30 min before LPS i.p., serum 90 min after LPS.
Type: in vivo, Female Swiss albino mice
Description: LPS Induced Sepsis for Measurement of TNF-α Inhibition in Mice:
The LPS induced sepsis model in mice was performed as described by Les sekut et al (J Lab Clin Med 1994; 124, 813-20). Female Swiss albino mice were selected and the body weights were equivalent within each group. The mice were fasted for 20 h with free access to water. The mice were dosed orally with the test compound suspended in vehicle containing 0.5% Tween 80 in 0.25% Carboxy-methylcellulose sodium salt. The control mice were administered the vehicle alone. After 30 minutes of oral dosing, mice were injected with 500 μg of Lipopolysaccharide (Escherichia coli, LPS: B4 from Sigma) in phosphate buffer saline solution into the intraperitoneal cavity of the mice. After 90 minutes of LPS administration mice were bled via retro-orbital sinus puncture. Blood samples were stored overnight at 4° C. Serum samples were collected by centrifuging the samples at 4000 rpm for 15 minutes at 4° C. Immediately the serum samples were analysed for TNF-α levels using commercially available mouse TNF-α ELISA kit (Amersham Biosciences) and assay was performed by the manufacturer instruction.

| Compound | TNF-α Inhibition (%) |
| --- | --- |
| CS(=O)(=O)Nc1ccc2oc3c(OC(F)F)ccc(-c4nc(C(=O)N[C@H]5CC[C@H](O)CC5)co4)c3c2c1 [Example 50, 2-(4-(Difluoromethoxy)-8-(methylsulfonamido)dibenzo[b,d]furan-1-yl)-N-(4-hydroxycyclohexyl)-1,3-oxazole-4-carboxamide] | 13.15 |

Source: US8580795B2, “Heterocyclic compounds as phosphodiesterase inhibitors” (Orchid Chemicals & Pharmaceuticals Limited, priority 2009, dated 2013)
